The target of this assay is recombinant RSV complex (Human respiratory syncytial virus A, UniProt P28887). Briefly: RSV Polymerase Inhibition Assay. The class given is biochemical. The method, then: Standard RSV polymerase assays were conducted in the presence of 10 nM recombinant RSV complex in a reaction buffer containing Tris-HCl pH7.5, 6 mM MgCl2, and other additives and substrates including RNA oligonucleotides and radionucleotides. Standard reactions were incubated in 96-well plate format for 2 h at 30° C., in the presence of increasing concentration of inhibitor. The reaction was stopped with 90 μL of 0.1M EDTA, and the reaction product was transferred to a “reading” 96-well plate. After washing of the plate, radiolabeled RNA products were detected according to standard procedures with a Trilux Topcount scintillation counter.
Chain of recombinant RSV complex (P28887 whole entry): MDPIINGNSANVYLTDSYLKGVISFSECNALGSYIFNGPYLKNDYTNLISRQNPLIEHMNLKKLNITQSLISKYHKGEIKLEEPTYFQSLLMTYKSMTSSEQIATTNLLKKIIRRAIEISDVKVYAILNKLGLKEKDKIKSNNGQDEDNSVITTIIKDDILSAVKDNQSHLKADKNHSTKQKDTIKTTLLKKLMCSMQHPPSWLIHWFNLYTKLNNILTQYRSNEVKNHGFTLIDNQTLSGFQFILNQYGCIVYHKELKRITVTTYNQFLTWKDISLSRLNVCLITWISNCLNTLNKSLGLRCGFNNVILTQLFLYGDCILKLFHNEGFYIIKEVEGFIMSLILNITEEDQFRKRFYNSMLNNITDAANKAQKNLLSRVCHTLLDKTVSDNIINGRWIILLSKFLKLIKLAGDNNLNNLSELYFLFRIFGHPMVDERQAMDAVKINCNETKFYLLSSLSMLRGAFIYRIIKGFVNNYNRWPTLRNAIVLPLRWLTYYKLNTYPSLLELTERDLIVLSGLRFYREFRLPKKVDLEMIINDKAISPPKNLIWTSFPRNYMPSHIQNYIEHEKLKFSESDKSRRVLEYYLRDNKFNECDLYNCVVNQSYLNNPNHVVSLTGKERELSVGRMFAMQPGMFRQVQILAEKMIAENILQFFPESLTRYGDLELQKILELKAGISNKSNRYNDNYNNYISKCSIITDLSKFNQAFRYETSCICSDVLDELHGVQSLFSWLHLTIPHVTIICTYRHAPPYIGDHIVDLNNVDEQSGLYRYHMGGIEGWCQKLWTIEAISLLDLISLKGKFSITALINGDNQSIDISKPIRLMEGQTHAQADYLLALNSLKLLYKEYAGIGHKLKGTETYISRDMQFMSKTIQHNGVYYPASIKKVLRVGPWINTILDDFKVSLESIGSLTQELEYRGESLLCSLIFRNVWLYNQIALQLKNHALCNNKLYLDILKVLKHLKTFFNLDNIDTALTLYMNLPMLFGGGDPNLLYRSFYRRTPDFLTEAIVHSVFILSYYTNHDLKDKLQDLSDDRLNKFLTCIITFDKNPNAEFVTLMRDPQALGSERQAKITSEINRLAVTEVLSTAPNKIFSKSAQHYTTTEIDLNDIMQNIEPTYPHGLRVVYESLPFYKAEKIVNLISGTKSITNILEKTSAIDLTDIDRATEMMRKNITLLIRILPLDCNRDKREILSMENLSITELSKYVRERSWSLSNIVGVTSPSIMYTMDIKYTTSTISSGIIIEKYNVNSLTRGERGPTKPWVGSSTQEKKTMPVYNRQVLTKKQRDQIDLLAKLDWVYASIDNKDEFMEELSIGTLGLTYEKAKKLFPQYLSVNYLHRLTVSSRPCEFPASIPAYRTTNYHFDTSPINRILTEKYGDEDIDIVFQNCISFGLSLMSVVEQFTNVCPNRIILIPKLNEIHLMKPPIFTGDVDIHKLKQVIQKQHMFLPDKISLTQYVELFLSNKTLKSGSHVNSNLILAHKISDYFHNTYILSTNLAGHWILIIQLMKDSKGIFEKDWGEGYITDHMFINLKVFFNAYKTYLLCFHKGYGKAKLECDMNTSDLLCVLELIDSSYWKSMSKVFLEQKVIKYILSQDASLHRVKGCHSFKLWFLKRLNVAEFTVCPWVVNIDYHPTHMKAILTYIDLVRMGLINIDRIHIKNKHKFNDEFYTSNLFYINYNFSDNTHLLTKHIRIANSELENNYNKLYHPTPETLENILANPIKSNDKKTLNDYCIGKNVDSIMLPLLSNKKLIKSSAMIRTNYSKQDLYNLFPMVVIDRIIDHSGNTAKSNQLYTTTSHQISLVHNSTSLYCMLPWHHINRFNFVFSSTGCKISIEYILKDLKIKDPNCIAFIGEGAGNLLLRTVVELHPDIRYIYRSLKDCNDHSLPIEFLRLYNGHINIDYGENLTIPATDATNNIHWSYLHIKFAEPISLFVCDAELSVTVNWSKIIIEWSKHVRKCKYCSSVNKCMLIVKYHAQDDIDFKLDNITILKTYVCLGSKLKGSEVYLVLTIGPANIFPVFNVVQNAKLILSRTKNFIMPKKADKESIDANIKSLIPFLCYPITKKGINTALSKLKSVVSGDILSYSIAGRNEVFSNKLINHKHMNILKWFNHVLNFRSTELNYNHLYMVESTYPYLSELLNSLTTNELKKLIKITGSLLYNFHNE
Chain of recombinant RSV complex (P03421 whole entry, further chain): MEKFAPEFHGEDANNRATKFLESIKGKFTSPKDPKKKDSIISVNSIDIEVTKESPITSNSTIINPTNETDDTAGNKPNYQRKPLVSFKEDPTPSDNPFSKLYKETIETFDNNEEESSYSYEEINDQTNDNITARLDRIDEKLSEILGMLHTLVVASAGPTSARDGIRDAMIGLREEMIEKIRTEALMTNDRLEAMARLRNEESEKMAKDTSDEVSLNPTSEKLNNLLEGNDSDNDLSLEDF

From patent publication US11021444B2, “Antiviral compounds” (priority 2013, dated 2021) come the findings set out here.

Structures are written as SMILES.

A word on the IC50: it is the concentration that gives 50% inhibition. Regarding `COc1cc(C(=O)NCC(C)(O)c2nc(-c3ccc(F)c(Cl)c3)c(C)n2C)ccc1OCCF` (stereo not drawn) [Compound 144], the IC50 was below 100 µM.

As to `COc1cc(C(=O)NCC(C)(O)c2ccc(OC)c(-c3ccc(F)c(Cl)c3)n2)ccc1-c1cccnc1` (stereo not drawn) [Compound 146], the IC50 was below 10 µM.

As for `COc1cc(C(=O)NCC(C)(O)c2ccc(OC)c(-c3ccc(F)c(Cl)c3)n2)ccc1N1CCCC1=O` (stereo not drawn) [Compound 151], the IC50 was below 10 µM.

Consider `COc1cc(C(=O)NCC(O)c2ccc(OC)c(-c3ccc(F)c(Cl)c3)n2)ccc1OC(F)F` (stereo not drawn) [Compound 153], for which the IC50 is below 10 µM.

Consider `CCOc1ccc(C(=O)NCC(O)c2ccc(OC)c(-c3ccc(F)c(Cl)c3)n2)cc1OC` (stereo not drawn) [Compound 154], for which the IC50 was below 10 µM.

As for `COc1cc(C(=O)NCC(O)(CN2CCCCC2)c2ccc(OC)c(-c3ccc(F)c(Cl)c3)n2)ccc1OCCO` (stereo not drawn) [Compound 188], the IC50 was below 10 µM.

As to `COc1cc(C(=O)NCC(O)(c2cc3c(c(-c4ccc(F)c(Cl)c4)n2)OCC3(C)C)C(F)(F)F)ccc1OC1CCNC1=O` (stereo not drawn) [Compound 203], the IC50 was below 10 µM.

As to `COc1cc(C(=O)NCC(O)(Cn2ccnc2)c2cc3c(c(-c4ccc(F)c(Cl)c4)n2)OCC3(C)C)ccc1OCCO` (stereo not drawn) [Compound 225], the IC50 was below 1 µM.

With `COc1cc(C(=O)NCC(O)(c2cc(CNC(C)=O)cc(-c3ccc(F)cc3)n2)C(F)(F)F)ccc1OC1CC1` (stereo not drawn) [Compound 329], the IC50 is below 1 µM.

For the compound `COc1cc(C(=O)NCC(O)(c2ccc(OC)c(-c3ccc(F)c(Cl)c3)n2)C(F)(F)F)ccc1OC1CCN(C)C1=O` (stereo not drawn) [Compound 350], the IC50 is below 10 µM.

With `COc1cc(C(=O)NCC(O)(c2ccc(OC)c(-c3ccc(F)c(Cl)c3)n2)C2CC2)ccc1OCc1ncnn1C` (stereo not drawn) [Compound 352], the IC50 is below 10 µM.

For the compound `COc1cc(C(=O)NCC(C)(O)c2ccc(OC)c(-c3ccc(F)c(Cl)c3)n2)ccc1OCC#N` (stereo not drawn) [Compound 367], the IC50 was below 1 µM.

For the compound `COc1cc(C(=O)NCC(C)(O)c2nc(-c3ccc(F)c(Cl)c3)ccc2F)ccc1OCC(N)=O` (stereo not drawn) [Compound 377], the IC50 was below 10 µM.

With `COc1cc(C(=O)NCC(C)(O)c2ccc(OC)c(-c3ccc(F)c(Cl)c3)n2)ccc1OCCN` (stereo not drawn) [Compound 382], the concentration for half-maximal inhibition (IC50) was below 100 µM.

For the compound `COc1cc(C(=O)NCC(O)(c2cc(C(C)(C)NC(=O)OCc3ccccc3)cc(-c3ccc(F)c(Cl)c3)n2)C(F)(F)F)ccc1OC1CC1` (stereo not drawn) [Compound 399], the IC50 was below 1 µM.

On to `CNC(=O)COc1ccc(C(=O)NCC(O)(c2ccc(OC)c(-c3ccc(F)c(Cl)c3)n2)C(F)(F)F)cc1OC` (stereo not drawn) [Compound 402], for which the half-maximal inhibitory concentration (IC50) is below 1 µM.

`COc1cc(C(=O)NCC(O)(c2ccc(OCCN(C)C)c(-c3ccc(F)cc3)n2)C(F)(F)F)ccc1OC1CC1` (stereo not drawn) [Compound 480]: the IC50 was below 10 µM.

For `CC1(N)COc2c1cc(C(O)(CNC(=O)c1ccc(OC3CC3)c(CO)c1)C(F)(F)F)nc2-c1ccc(F)cc1` (stereo not drawn) [Compound 481], the IC50 is below 1 µM.

With `COc1cc(C(=O)NCC(O)(c2cc(CCN)cc(-c3ccc(F)c(Cl)c3)n2)C(F)(F)F)ccc1OC1CC1` (stereo not drawn) [Compound 522], the IC50 was below 1 µM.

Consider `COc1cc(C(=O)NCC(O)(c2cc(C(C)(C)N)cc(-c3ccc(F)cc3)n2)C(F)(F)F)ccc1OCC(F)(F)F` (stereo not drawn) [Compound 573], for which the IC50 is below 1 µM.

`COc1cc(C(=O)NCC(O)(c2cc(C(C)(C)N)cc(-c3ccc(F)c(Cl)c3)n2)C(F)(F)F)ccc1OCC(=O)NS(C)(=O)=O` (stereo not drawn) [Compound 618]: the IC50 is below 1 µM.

Take `COc1cc(C(=O)NCC(O)(c2cc3c(c(-c4ccc(F)cc4)n2)OCC3(C)N)C(F)(F)F)ccc1OCS(N)(=O)=O` (stereo not drawn) [Compound 648]: the IC50 was below 1 µM.

As for `COc1cc(C(=O)NCC(O)(c2cc3c(c(-c4ccc(F)cc4)n2)OCC32CCCN2)C(F)(F)F)ccc1OCCO` (stereo not drawn) [Compound 652], the IC50 is below 1 µM.

`COc1cc(C(=O)NCC(O)(c2cc(C(C)(C)N)cc(-c3ccc(C(F)(F)F)cc3)n2)C(F)(F)F)ccc1OCCO` (stereo not drawn) [Compound 658]: the IC50 is below 1 µM.
